According to US7442501B2, “SQV nucleic acids and polypeptides” (Massachusetts Institute of Technology, priority 2002, dated 2008):

Legend:
chondroitin synthase [1] = assay: GalNAcT (N-acetylgalactosamyl transferase) assay of chondroitin synthase activity in worm protein extracts; assay type: biochemical; conditions: extract genotype sqv-5/sqv-5 (sqv-5(n3611))
Protocol: (§1) sqv-5(n3611), sqv-5(n3611)/hT2, and wild-type (N2) animals were used to prepare worm protein extracts. These extracts were tested for chondroitin synthase activity using standard methods, for example, in DeAngelis et al., (J. Biol. Chem. 27:24124-24129, 2000).
(§2) A desulfated chondroitin acceptor was used for the GalNAcT (N-acetylgalactosamyl transferase) assay. Desulfated and β-glucuronidase-treated chondroitin acceptor was used for the GlcAT (glucuronyl transferase) assay.
(§3) The enzymatic activity of SQV-5 was assayed as follows. SQV-5(n3611), sqv-5(n3611)/hT2, and wild-type N2 hermaphrodites were picked as L4 larvae by visual examination of the vulva using a dissecting microscope. The worms staged were allowed to grow for an additional twenty-three to twenty-seven hours at 22° C., re-examined, then transferred to 1.7-ml plastic tubes containing sterile water. The staged worms were washed once with water and twice with 50 mM Tris, pH 7.5, then frozen in a 50 μl volume using liquid nitrogen, and stored at −70° C.
(§4) Worm extracts were assayed for GIcAT glucoronosyltransferase activity by combining 1.3×10^5 cpm UDP-^3H-glucuronic acid donor (NEN), 6 μg β-glucuronidase-treated chondroitin acceptor, and 2.7 μg worm extract in a 25 μl reaction volume containing 0.05% Triton X-100, 10 mM MnCl2, and 100 μM ATP, pH 6.5. GalNAcT activity was detected by combining 1.3 to 3×10^5 cpm UDP-^3H-GalNAc donor (NEN), 12 μg chondroitin acceptor, and 6.7 μg worm extract in a 25 μl reaction volume containing 0.05% Triton X-100 and 10 mM MnCl2, pH 6.5. […] Pelleted material was resuspended in water and counted by liquid scintillation.
(§5) The chondroitin acceptor used was prepared as follows. […] Uronic acid concentration of both preparations was determined by the Carbazole method (Bitter, et al., Anal. Biochem. 4:330-334, 1962).

chondroitin synthase [2] = target: T1, chondroitin synthase (Caenorhabditis elegans, UniProt Q7Z1Z1); assay: as above; assay type: biochemical
T1 construct: wild-type (N2) animals were used to prepare worm protein extracts; from tissue; host or cells: whole C. elegans hermaphrodites (young adults), sonicated protein extract
T1 sequence (Q7Z1Z1 1-736): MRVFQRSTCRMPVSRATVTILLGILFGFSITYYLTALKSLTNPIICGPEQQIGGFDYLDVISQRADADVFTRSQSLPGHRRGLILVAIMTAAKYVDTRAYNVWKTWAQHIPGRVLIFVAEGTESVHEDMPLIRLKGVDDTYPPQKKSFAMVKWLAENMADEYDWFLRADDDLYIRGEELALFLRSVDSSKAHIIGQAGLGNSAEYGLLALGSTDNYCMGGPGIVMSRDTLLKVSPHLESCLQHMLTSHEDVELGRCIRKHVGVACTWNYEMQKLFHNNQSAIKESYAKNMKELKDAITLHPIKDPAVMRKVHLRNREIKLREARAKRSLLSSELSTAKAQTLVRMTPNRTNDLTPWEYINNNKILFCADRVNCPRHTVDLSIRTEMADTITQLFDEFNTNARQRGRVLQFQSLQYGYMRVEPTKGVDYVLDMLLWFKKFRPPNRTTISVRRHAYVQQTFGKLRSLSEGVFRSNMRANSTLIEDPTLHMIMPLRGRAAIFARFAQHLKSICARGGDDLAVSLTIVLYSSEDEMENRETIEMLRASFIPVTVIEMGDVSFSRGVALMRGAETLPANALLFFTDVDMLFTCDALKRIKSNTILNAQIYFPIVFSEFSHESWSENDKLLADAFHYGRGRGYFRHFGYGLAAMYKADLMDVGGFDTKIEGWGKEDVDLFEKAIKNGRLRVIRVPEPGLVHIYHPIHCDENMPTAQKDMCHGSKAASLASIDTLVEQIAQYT
Protocol: as §1, §2, §3, §4, §5

CC(=O)N[C@H]1[C@@H](OP(=O)(O)OP(=O)(O)OC[C@H]2O[C@@H](n3ccc(=O)[nH]c3=O)[C@H](O)[C@@H]2O)O[C@H](CO)[C@H](O)[C@@H]1O [UDP-N-acetylgalactosamine]
CPM (chondroitin synthase [1]): <0 CPM | CPM (chondroitin synthase [2]; extract genotype +/+ (wild-type)): 171 CPM | CPM (chondroitin synthase [2]; extract genotype +/sqv-5 (sqv-5(n3611)/hT2)): 134 CPM
